Tests used:
S. pyogenes 2 = experiment: MIC, broth microdilution (NCCLS); type: cell-based; settings: Gram positive; resistant clinical isolate from diabetic foot ulcer; MHB 24 h 35° C.
Method: (§1) Their antimicrobial activity was established according to the recommendations of NCCLS, (National Committee for Clinical Laboratory Standards 1999, “Performance standards for antimicrobial susceptibility testing. NCCLS approved standard M100-S9” Wayne, Pa.) by the use of a broth microdilution method. Minimum inhibitory concentrations (MICs) for the tested compound were conducted using 12 different pathogens clinically isolated from diabetic foot ulcers and are all resistant strains for at least 10 antibiotics used for diabetic foot ulcer treatment. S. aureus 1, 2 and 3 and S. pyogenes 1, 2 and 3 as […] bacteria and P. mirabilis 1, 2 and 3 and Ps. aeruginosa 1, 2 and 3 as […] bacteria. The test materials were dissolved in DMSO. The highest concentration used was 256 μg/ml. The inoculum was 10^5CFU/ml for bacteria and 10^4CFU/ml for the yeast. Bacteria were cultured in Mueller Hinton Broth (MHB) for 24 h at 35° C. and the yeast in Glucose Peptone Broth (GPB) for 48 h at 30° C. MIC value was corresponding to the lowest concentration that inhibited the bacterial growth.
(§2) For the following seven samples, MICs values were determined and the antimicrobial activity is inversely proportional to this value. Concentrations used in this screening were: 1, 2, 4, 8, 16, 32, 64, 128 and 256 (μg/ml). 1 μg/ml corresponds to a 10^−4% solution and an Ag(I) concentration of about 2·10^−6 mol/dm^3.

P. mirabilis 2 = experiment: MIC, broth microdilution (NCCLS); type: cell-based; settings: Gram negative; resistant clinical isolate from diabetic foot ulcer; MHB 24 h 35° C.
Method: as §1, §2

S. pyogenes 3 = experiment: MIC, broth microdilution (NCCLS); type: cell-based; settings: Gram positive; resistant clinical isolate from diabetic foot ulcer; MHB 24 h 35° C.
Method: as §1, §2

S. aureus 2 = experiment: MIC, broth microdilution (NCCLS); type: cell-based; settings: Gram positive; resistant clinical isolate from diabetic foot ulcer; MHB 24 h 35° C.
Method: as §1, §2

Ps. aeruginosa 1 = experiment: MIC, broth microdilution (NCCLS); type: cell-based; settings: Gram negative; resistant clinical isolate from diabetic foot ulcer; MHB 24 h 35° C.
Method: as §1, §2

S. aureus 3 = experiment: MIC, broth microdilution (NCCLS); type: cell-based; settings: Gram positive; resistant clinical isolate from diabetic foot ulcer; MHB 24 h 35° C.
Method: as §1, §2

S. aureus 1 = experiment: MIC, broth microdilution (NCCLS); type: cell-based; settings: Gram positive; resistant clinical isolate from diabetic foot ulcer; MHB 24 h 35° C.
Method: as §1, §2

P. mirabilis 1 = experiment: MIC, broth microdilution (NCCLS); type: cell-based; settings: Gram negative; resistant clinical isolate from diabetic foot ulcer; MHB 24 h 35° C.
Method: as §1, §2

P. mirabilis 3 = experiment: MIC, broth microdilution (NCCLS); type: cell-based; settings: Gram negative; resistant clinical isolate from diabetic foot ulcer; MHB 24 h 35° C.
Method: as §1, §2

S. pyogenes 1 = experiment: MIC, broth microdilution (NCCLS); type: cell-based; settings: Gram positive; resistant clinical isolate from diabetic foot ulcer; MHB 24 h 35° C.
Method: as §1, §2

Solubility in DMSO = type: physicochemical; settings: sparingly soluble

solubility in DMSO (Solubility in DMSO) [µg/mL]	SMILES	MIC S. pyogenes 2 (S. pyogenes 2) [µg/mL]	MIC P. mirabilis 2 (P. mirabilis 2) [µg/mL]	MIC S. pyogenes 3 (S. pyogenes 3) [µg/mL]	MIC S. aureus 2 (S. aureus 2) [µg/mL]	MIC Ps. Aeruginosa 1 (Ps. aeruginosa 1) [µg/mL]	MIC S. aureus 3 (S. aureus 3) [µg/mL]	MIC S. aureus 1 (S. aureus 1) [µg/mL]	MIC P. mirabilis 1 (P. mirabilis 1) [µg/mL]	MIC P. mirabilis 3 (P. mirabilis 3) [µg/mL]	MIC S. pyogenes 1 (S. pyogenes 1) [µg/mL]
3000 to 5000	CCOC(=O)c1cccnc1.O=[N+]([O-])[O-].[Ag+] [Compound 2, [Ag(ethylnicotinate)2]NO3]	4	128	2	4	64	4	16	128	256	2
3000 to 5000	CCOC(=O)c1ccncc1.O=[N+]([O-])[O-].[Ag+] [Compound 3, [Ag(ethylisonicotinato)2]NO3]	16	2	16	4	32	16	8	8	16	32
3000 to 5000	COC(=O)c1ccncc1.O=[N+]([O-])[O-].[Ag+] [Compound 4, [Ag(methylisonicotinate)2]NO3]	128	1	64	32	128	8	16	2	2	64
–	Nc1ncccc1C(=O)O.Nc1ncccc1C(=O)O.O=[N+]([O-])[O-].O=[N+]([O-])[O-].[Ag+].[Ag+] [Compound 6, [Ag2-μ-O,O′(2-aminonicotinium)2](NO3)2]	256	16	256	32	8	64	32	64	32	128

— patent US20100234339A1, “SILVER(I) COMPOUNDS AND THEIR USE IN PHARMACEUTICAL COMPOSITIONS FOR THE TREATMENT,PROPHYLAXIS AND PREVENTION OF INFECTIONS” (priority 2007, published 2010)
